In patent publication US20100305087A1, “ACTIVE PHARMACEUTICAL INGREDIENT ON A SOLID SUPPORT, AMORPHOUS AND WITH AN IMPROVED SOLUBILITY” (Lek Pharmaceuticals d.d., priority 2007, published 2010):

Experiments:
[1] = Dissolution profile of ezetimibe preparations in water (amount dissolved over time); format: physicochemical
Excerpt: The results are shown in Tables 1 to 3, and FIGS. 1 to 3.

[2] = cited from earlier work
[3] = Dissolution profile of atovaquone preparations in 10 mM triethylamine/HCl (pH=10) buffer; format: physicochemical

## O=C1[C@H](CC[C@H](O)c2ccc(F)cc2)[C@@H](c2ccc(O)cc2)N1c1ccc(F)cc1 [Amorphous ezetimibe, 1-(4-fluorophenyl)-3-[3-(4-fluorophenyl)-3-hydroxy-propyl]-4-(4-hydroxyphenyl)-azetidin-2-one]
[1]; Ezetimibe and Aerosil 200, time 10 min
  Amount dissolved: 0.19 µg/mL
[1]; Ezetimibe and Aerosil 200, time 20 min
  Amount dissolved: 0.20 µg/mL
[1]; Ezetimibe and Aerosil 200, time 45 min
  Amount dissolved: 0.27 µg/mL
[1]; Ezetimibe and Aerosil 200, time 100 min
  Amount dissolved: 0.41 µg/mL

## O=C1[C@H](CC[C@H](O)c2ccc(F)cc2)[C@@H](c2ccc(O)cc2)N1c1ccc(F)cc1 [ezetimibe, 1-(4-fluorophenyl)-3-[3-(4-fluorophenyl)-3-hydroxy-propyl]-4-(4-hydroxyphenyl)-azetidin-2-one]
[2]
  log P/hydrophobicity value: 4.584

## O=C1[C@H](CC[C@H](O)c2ccc(F)cc2)[C@@H](c2ccc(O)cc2)N1c1ccc(F)cc1 [Crystalline ezetimibe, 1-(4-fluorophenyl)-3-[3-(4-fluorophenyl)-3-hydroxy-propyl]-4-(4-hydroxyphenyl)-azetidin-2-one]
[1]; Ezetimibe and Prosolv, time 10 min
  Amount dissolved: 0.08 µg/mL
[1]; Ezetimibe and Prosolv, time 20 min
  Amount dissolved: 0.13 µg/mL
[1]; Ezetimibe and Prosolv, time 60 min
  Amount dissolved: 0.12 µg/mL
[1]; Ezetimibe and Prosolv, time 100 min
  Amount dissolved: 0.25 µg/mL

## O=C1C(=O)c2ccccc2C(O)=C1C1CCC(c2ccc(Cl)cc2)CC1 (centres unmarked) [atovaquone, 3-[4-(4-chlorophenyl)cyclohexyl]-4-hydroxy-naphthalene-1,2-dione]
[2]
  log P/hydrophobicity value: 5.251

## O=C1C(=O)c2ccccc2C(O)=C1C1CCC(c2ccc(Cl)cc2)CC1 (centres unmarked) [Crystalline atovaquone, 3-[4-(4-chlorophenyl)cyclohexyl]-4-hydroxy-naphthalene-1,2-dione]
[3]; Atovaquone and Aerosil 200, time 10 min
  Amount dissolved: 0.16 µg/mL
[3]; Atovaquone and Aerosil 200, time 20 min
  Amount dissolved: 0.7 µg/mL
[3]; Atovaquone and Aerosil 200, time 60 min
  Amount dissolved: 4.1 µg/mL
[3]; Atovaquone and Aerosil 200, time 100 min
  Amount dissolved: 6.2 µg/mL
